For 19 molecules, IC50 results are on record in patent US11919902B2, “Aryl-bipyridine amine derivatives as phosphatidylinositol phosphate kinase inhibitors” (HiberCell, Inc., priority 2017, dated 2024).

Structures are written as SMILES.

The target in assay [1] is T1, PIP4K2A (full length protein, SignalChem) (Homo sapiens, UniProt P48426).
T1 construct: 4 nM PIP4K2A (full length protein, SignalChem); purchased SignalChem
T1 sequence (P48426 1-406): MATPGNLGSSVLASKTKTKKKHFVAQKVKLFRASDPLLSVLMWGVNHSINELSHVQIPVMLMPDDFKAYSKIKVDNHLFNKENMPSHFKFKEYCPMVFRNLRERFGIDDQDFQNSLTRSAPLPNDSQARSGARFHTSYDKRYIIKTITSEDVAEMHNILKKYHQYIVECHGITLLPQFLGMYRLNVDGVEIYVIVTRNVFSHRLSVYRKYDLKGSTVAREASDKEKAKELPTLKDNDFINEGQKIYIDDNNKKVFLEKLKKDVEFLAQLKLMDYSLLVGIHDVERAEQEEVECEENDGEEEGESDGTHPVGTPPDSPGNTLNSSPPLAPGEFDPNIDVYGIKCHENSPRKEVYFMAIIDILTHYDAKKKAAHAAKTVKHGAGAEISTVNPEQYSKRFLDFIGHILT
Nature of the assay: Kinase Assay PIP4K2 A (Sprint); ADP-Glo biochemical assay. As to conditions: Table 2; compounds listed under IC50 range headings. In a few lines:
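ADP-Glo luminescence detected ADP after a 1 h RT reaction started with 60 μM ATP solution. Before that, full-length PIP4K2A (4 nM in mix) with 100 μM PI(5)P diC8 was pre-incubated 15 min with compounds in MOPS buffer pH 7.2, 25 mM MgCl2, 0.005% Tween 20. IC50 derived from % inhibition relative to DMSO over 10 three-fold concentrations.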

A further assay has as its target T2, GST tagged PIP4KtypeIIB (Homo sapiens, UniProt P78356).
T2 construct: made in house; host or cells: E. coli
T2 sequence (P78356 1-416): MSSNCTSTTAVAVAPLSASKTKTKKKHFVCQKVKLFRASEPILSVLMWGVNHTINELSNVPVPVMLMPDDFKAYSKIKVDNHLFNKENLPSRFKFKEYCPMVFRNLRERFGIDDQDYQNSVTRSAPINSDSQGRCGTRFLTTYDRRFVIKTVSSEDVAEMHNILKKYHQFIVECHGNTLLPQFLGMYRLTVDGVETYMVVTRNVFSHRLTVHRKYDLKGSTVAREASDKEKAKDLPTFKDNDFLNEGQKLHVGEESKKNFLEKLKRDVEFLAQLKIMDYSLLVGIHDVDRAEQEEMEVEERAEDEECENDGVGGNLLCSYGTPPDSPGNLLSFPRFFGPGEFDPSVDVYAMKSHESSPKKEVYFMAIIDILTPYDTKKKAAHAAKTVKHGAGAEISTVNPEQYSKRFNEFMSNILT
Nature of the assay: Trans-FI P kinase assay PIP4K2B (PIP4KtypeIIB inhibition assay). Type of assay: biochemical. As to conditions: Table 4; compounds listed under IC50 range headings; 100 uM GTP, 5 nM PIP4KIIB; read-out: Trans-FI P kinase assays: PIP4K2B IC50. The method, boiled down: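 Transcreener FI fluorescence, converted to GDP by calibration, tracked product from 5 nM E. coli-expressed GST-PIP4KIIB acting on 80 uM PI5P (DOPE carrier) with 100 uM GTP. Compound (top 4.8 uM final, 5% DMSO) was preincubated 1 h at 27 C before the 2 h reaction; IC50 fitted from residual activity.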

A further assay concerns the target T3, GST tagged PIP4KtypeIIA (Homo sapiens, UniProt P48426).
T3 construct: made in house; host or cells: E. coli
T3 sequence (P48426 1-406): T1 sequence (P48426 1-406)
Nature of the assay: ADP-glo kinase assay PIP4K 2A (PIP4KtypeIIA inhibition assay). Type of assay: biochemical. The conditions noted are these: Table 3; compounds listed under IC50 range headings; 10 uM ATP, 0.5 nM PIP4KIIA. In a few lines:
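Read-out was ADP-Glo luminescence converted to μM ADP, with IC50 plotted as % of no-inhibitor activity against log concentration. Reactions contained 10 μM ATP, 80 μM PI5P with DOPE carrier, and 0.5 nM GST-tagged PIP4KIIA (E. coli-expressed) in pH 7.3 HEPES/MgCl2 buffer with 5% DMSO. Enzyme and compound (≤4.8 μM) were preincubated 1 h at 27 °C before the 1 h reaction.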
On the technique in general: ADP-Glo turns the ADP formed in a reaction into a luminescent signal.

The IC50 is the point on the concentration scale where inhibition reaches its midpoint. On to `Cc1cnc2[nH]ccc2c1-c1cncc(-c2ccc(N3CCCC3=O)cc2)c1` [Example 35, 1-(4-(5-(5-methyl-1H-pyrrolo[2,3-b]pyridin-4-yl)pyridin-3-yl)phenyl)pyrrolidin-2-one], for which the IC50 in assay [1] was in the range of 100 to 1000 nM; at GST tagged PIP4KtypeIIB, 100 to 1000 nM; against GST tagged PIP4KtypeIIA, 1000 to 2500 nM.

Turning to `CN(C)C(=O)c1ccc(-c2cc(-c3ccnc(CNC(=O)CCc4cccc(NC(=O)OC(C)(C)C)c4)c3)cnc2N)nc1` [Example 193, tert-butyl (3-(3-(((2′-amino-5-(dimethylcarbamoyl)-[2,3′:5′,4″-terpyridin]-2″-yl)methyl)amino)-3-oxopropyl)phenyl)carbamate], the IC50 in assay [1] was 1000 to 2500 nM; on GST tagged PIP4KtypeIIB, 2500 to 5000 nM; against GST tagged PIP4KtypeIIA, more than 5000 nM.

For the molecule `CN(C)C(=O)c1ccc(-c2cc(-c3ccnc4[nH]c(C(=O)N5CCOCC5)cc34)cnc2N)nc1` [Example 128, 2′-amino-N,N-dimethyl-5′-(2-(morpholine-4-carbonyl)-1H-pyrrolo[2,3-b]pyridin-4-yl)-[2,3′-bipyridine]-5-carboxamide], the values for the IC50 (in assay [1]; on GST tagged PIP4KtypeIIB; on GST tagged PIP4KtypeIIA) were 100 to 1000 nM, 100 to 1000 nM and 1000 to 2500 nM, respectively.

Regarding `CN(C)C(=O)c1ccc(-c2cc(-c3cccnc3N)cnc2N)nc1` [Example 120, 2′,2″-diamino-N,N-dimethyl-[2,3′:5′,3″-terpyridine]-5-carboxamide], the IC50 in assay [1] is less than 5000 nM; on GST tagged PIP4KtypeIIB, more than 5000 nM; against GST tagged PIP4KtypeIIA it was more than 5000 nM.

For `CN(C[C@H]1CC[C@H](N)CC1)C(=O)c1ccc(-c2cncc(-c3ccncc3)c2)cc1` [Example 181, 4-([3,4′-bipyridin]-5-yl)-N-(((1r,4r)-4-aminocyclohexyl)methyl)-N-methylbenzamide], the IC50 was less than 5000 nM in assay [1], more than 5000 nM on GST tagged PIP4KtypeIIB and more than 5000 nM at GST tagged PIP4KtypeIIA.

Take `COc1cc(-c2cncc(-c3ccc(N4CCCC4=O)cc3)c2)c2c[nH]nc2n1` [Example 257, 1-(4-(5-(6-methoxy-2H-pyrazolo[3,4-b]pyridin-4-yl)pyridin-3-yl)phenyl)pyrrolidin-2-one]: the concentration for half-maximal inhibition (IC50) (in assay [1]; at GST tagged PIP4KtypeIIB; against GST tagged PIP4KtypeIIA) was 100 to 1000 nM in each case.

For `CN(C)C(=O)c1cnc2c(c1)c(-c1cncc(-c3ccc(N4CCCC4=O)cc3)c1)nn2C` [Example 231, N,N,1-trimethyl-3-(5-(4-(2-oxopyrrolidin-1-yl)phenyl)pyridin-3-yl)-1H-pyrazolo[3,4-b]pyridine-5-carboxamide], the IC50 lay within 100 to 1000 nM in assay [1], 1000 to 2500 nM at GST tagged PIP4KtypeIIB and 100 to 1000 nM against GST tagged PIP4KtypeIIA.

For `O=C1CCCN1c1ccc(-c2cncc(-c3c[nH]c4ncncc34)c2)cc1` [Example 30, 1-(4-(5-(7H-pyrrolo[2,3-d]pyrimidin-5-yl)pyridin-3-yl)phenyl)pyrrolidin-2-one], the concentration for half-maximal inhibition (IC50) in assay [1] fell in the range of 5 to 100 nM; on GST tagged PIP4KtypeIIB, 100 to 1000 nM; at GST tagged PIP4KtypeIIA it was 100 to 1000 nM.

`CN1CCn2c(cc3c(-c4cncc(-c5ccc(N6CCCC6=O)cc5)c4)ccnc32)C1=O` [Example 46, 7-methyl-4-(5-(4-(2-oxopyrrolidin-1-yl)phenyl)pyridin-3-yl)-8,9-dihydropyrido[3′,2′:4,5]pyrrolo[1,2-a]pyrazin-6(7H)-one]: the IC50 lay within 5 to 100 nM in assay [1], 10 to 100 nM at GST tagged PIP4KtypeIIB and 100 to 1000 nM against GST tagged PIP4KtypeIIA.

As for `CN(C)C(=O)c1ccc(-c2cc(-c3ccnc4[nH]c(C(=O)NCc5cccnc5)cc34)cnc2N)nc1` [Example 136, 4-(2′-amino-5-(dimethylcarbamoyl)-[2,3′-bipyridin]-5′-yl)-N-(pyridin-3-ylmethyl)-1H-pyrrolo[2,3-b]pyridine-2-carboxamide], the results for the IC50 (in assay [1]; on GST tagged PIP4KtypeIIB; against GST tagged PIP4KtypeIIA) were 5 to 100 nM, 10 to 100 nM and 100 to 1000 nM, respectively.

On to `Cn1cc(-c2cncnc2)c2cc(-c3cncc(-c4ccc(N5CCCC5=O)cc4)c3)cnc21` [Example 176, 1-(4-(5-(1-methyl-3-(pyrimidin-5-yl)-1H-pyrrolo[2,3-b]pyridin-5-yl)pyridin-3-yl)phenyl)pyrrolidin-2-one], for which the IC50 lay in the range of 5 to 100 nM in assay [1], 1000 to 2500 nM on GST tagged PIP4KtypeIIB and 100 to 1000 nM against GST tagged PIP4KtypeIIA.

For the molecule `CN(C)C(=O)c1ccc(-c2cc(-c3ccnc4[nH]c(C(=O)N5CC(O)C5)cc34)cnc2N)nc1` [Example 129, 2′-amino-5′-(2-(3-hydroxyazetidine-1-carbonyl)-1H-pyrrolo[2,3-b]pyridin-4-yl)-N,N-dimethyl-[2,3′-bipyridine]-5-carboxamide], the IC50 (in assay [1]; at GST tagged PIP4KtypeIIB; against GST tagged PIP4KtypeIIA) was 100 to 1000 nM throughout.

For the molecule `CN(C)C(=O)c1ccc(-c2cc(-c3cnc4c(c3)c(-c3cncnc3)nn4C)cnc2N)nc1` [Example 124, 2′-amino-N,N-dimethyl-5′-(1-methyl-3-(pyrimidin-5-yl)-1H-pyrazolo[3,4-b]pyridin-5-yl)-[2,3′-bipyridine]-5-carboxamide], the IC50 was 1000 to 2500 nM in assay [1], more than 5000 nM at GST tagged PIP4KtypeIIB and more than 5000 nM against GST tagged PIP4KtypeIIA.

For the molecule `O=C1c2cc3c(-c4cncc(-c5ccc(N6CCCC6=O)cc5)c4)ccnc3n2CCN1CC1CC1` [Example 47, 7-(cyclopropylmethyl)-4-(5-(4-(2-oxopyrrolidin-1-yl)phenyl)pyridin-3-yl)-8,9-dihydropyrido[3′,2′:4,5]pyrrolo[1,2-a]pyrazin-6(7H)-one], the half-maximal inhibitory concentration (IC50) lay in the range of 5 to 100 nM in assay [1], 10 to 100 nM on GST tagged PIP4KtypeIIB and 100 to 1000 nM against GST tagged PIP4KtypeIIA.

With `Cn1ncc2c(-c3cncc(-c4ccc(N5CCCC5=O)cc4)c3)cn(CC3CCOCC3)c(=O)c21` [Example 70, 1-methyl-4-(5-(4-(2-oxopyrrolidin-1-yl)phenyl)pyridin-3-yl)-6-((tetrahydro-2H-pyran-4-yl)methyl)-1,6-dihydro-7H-pyrazolo[3,4-c]pyridin-7-one], the results for the IC50 (in assay [1]; on GST tagged PIP4KtypeIIB; at GST tagged PIP4KtypeIIA) were 5 to 100 nM, 100 to 1000 nM and 100 to 1000 nM, respectively.

As to `CN(C)C(=O)c1ccc(-c2cc(-c3ccnc4[nH]c(C(=O)N(C)C)cc34)cnc2N)nc1` [Example 127, 4-(2′-amino-5-(dimethylcarbamoyl)-[2,3′-bipyridin]-5′-yl)-N,N-dimethyl-1H-pyrrolo[2,3-b]pyridine-2-carboxamide], the IC50 in assay [1] fell in the range of 5 to 100 nM; on GST tagged PIP4KtypeIIB it was 10 to 100 nM; against GST tagged PIP4KtypeIIA it was 100 to 1000 nM.

Consider `CCOC(=O)c1cc2c(-c3cncc(-c4ccc(N5CCCC5=O)cc4)c3)ccnc2[nH]1` [Example 162, ethyl 4-(5-(4-(2-oxopyrrolidin-1-yl)phenyl)pyridin-3-yl)-1H-pyrrolo[2,3-b]pyridine-2-carboxylate], for which the IC50 in assay [1] was in the range of 5 to 100 nM; at GST tagged PIP4KtypeIIB, 10 to 100 nM; against GST tagged PIP4KtypeIIA, 100 to 1000 nM.

Turning to `CN(C)C(=O)c1ccc(-c2cc(-c3cnc4c(c3)c(-c3cccnc3)nn4C)cnc2N)nc1` [Example 123, 2′-amino-N,N-dimethyl-5′-(1-methyl-3-(pyridin-3-yl)-1H-pyrazolo[3,4-b]pyridin-5-yl)-[2,3′-bipyridine]-5-carboxamide], the IC50 was 100 to 1000 nM in assay [1], more than 5000 nM on GST tagged PIP4KtypeIIB and 1000 to 2500 nM against GST tagged PIP4KtypeIIA.

`Cn1ncc2c(-c3cncc(-c4ccc(N5CCCC5=O)cc4)c3)c[nH]c(=O)c21` [Example 158, 1-methyl-4-(5-(4-(2-oxopyrrolidin-1-yl)phenyl)pyridin-3-yl)-1,6-dihydro-7H-pyrazolo[3,4-c]pyridin-7-one]: the IC50 in assay [1] was 5 to 100 nM; at GST tagged PIP4KtypeIIB, 100 to 1000 nM; against GST tagged PIP4KtypeIIA, 100 to 1000 nM.
